Measured values published in US10477865B2, “Fungicidal compounds and methods of their use” (Auckland UniServices Limited, priority 2009, dated 2019).

Columns and labels:
Candida albicans SC5614 = assay: Agar diffusion assay, antimicrobial activity; assay type: cell-based; conditions: data not shown
Candida utilis 02/D00981 = assay: Agar diffusion assay, antimicrobial activity; assay type: cell-based; conditions: data not shown
[1] = Radical scavenging ability; conditions: compared with ascorbic acid; data not shown
B. cinera ICMP16621 [2] = assay: Agar diffusion assay, inhibition of mycelial growth; assay type: cell-based, Botrytis cinera; conditions: HPLC purified; YPD agar, 25° C., 5 days; data not shown
Escherichia coli SVB-B11 = assay: Agar diffusion assay, antimicrobial activity; assay type: cell-based; conditions: data not shown
[3] = test system: Pseudomonas aeruginosa SVB-B10; assay type: cell-based; conditions: agar diffusion; data not shown
[4] = FRAP (ferric reducing antioxidant power) assay; conditions: compared with ascorbic acid; data not shown
A. alternata ICMP1099-96 = assay: Inhibition of spore germination; assay type: cell-based, Alternaria alternata
[5] = Phosphomolybdenum antioxidant assay; conditions: compared with ascorbic acid; data not shown
[6] = test system: Saccharomyces cerevisiae BM45; assay: Agar diffusion assay, antimicrobial activity; assay type: cell-based; conditions: data not shown
[7] = test system: M. graminicola ICMP12504-95; assay type: cell-based, Mycosphaerella graminicola
[8] = Stability tests (absorbance at 428 nm in different testing solutions); assay type: physicochemical; conditions: after 10 days
[9] = test system: V. inaequalis ICMP4095-96; assay: Inhibition of spore germination; assay type: cell-based, Venturia inaequalis
B. cinera ICMP16621 [10] = assay: Inhibition of spore germination; assay type: cell-based, Botrytis cinera
M. grisea ICMP14481 = assay type: cell-based, Magnaporthe grisea
[11] = test system: S. sclerotiorum ICMP13844; assay: Agar diffusion assay, inhibition of mycelial growth; assay type: cell-based, Sclerotinia sclerotiorum; conditions: HPLC purified; YPD agar, 25° C., 5 days; data not shown
[12] = test system: S. sclerotiorum ICMP13844; assay: Inhibition of spore germination; assay type: cell-based, Sclerotinia sclerotiorum
[13] = test system: S. cepivorum ICMP10916-91; assay: Inhibition of spore germination; assay type: cell-based, Sclerotium cepivorum
P. viticola ICMP5537 = assay: Inhibition of spore germination; assay type: cell-based, Phomopsis viticola
A. supraseptata SVB-F2 = assay: Agar diffusion assay, inhibition of mycelial growth; assay type: cell-based, Apiognomonia supraseptata; conditions: HPLC purified; YPD agar, 25° C., 5 days; data not shown
[14] = Stability tests (absorbance at 428 nm in different testing solutions); assay type: physicochemical
Experimental: Stability was determined by re-suspending between 0.3 to 0.5 mg/mL of purified pigmented compound of Formula (IV) in different testing solutions according to Table 1, and measuring the absorbance at 428 nm every 24 hours for fifteen days. The test samples were kept in glass vials under constant incandescent light (except for the temperature stability test).

Solubility = assay type: physicochemical; conditions: in water and polar organic solvents such as methanol, and ethanol
R. solani ICMP11620 = assay type: cell-based, Rhizoctonia solani
[15] = test system: Staphylococcus epidermis SVB-B12; assay: Agar diffusion assay, antimicrobial activity; assay type: cell-based; conditions: data not shown
[16] = all three concentrations tested: 2.7, 1.3 and 0.7 mg·mL-1
[17] = Stability to common acids: Acetic acid
[18] = Stability to common acids: Malic acid
[19] = Stability to common alkalis: NaHCO3 10% w/w
[20] = Stability to presence of sugars: Sucrose 10% w/w
[21] = Stability to microwave radiation: 5 min, domestic microwave (1000 W)
[22] = Stability to temperature: 4° C. in methanol
[23] = Stability to temperature: 4° C. in water
[24] = Stability to temperature: 60° C. in methanol
[25] = Stability to temperature: 60° C. in water
[26] = Stability to temperature: 100° C. in water
[27] = Stability to temperature: −20° C. in methanol
[28] = Stability to temperature: −20° C. in water

CCC(C)CC(C)/C=C(/C=C(C)/C=C/C=C/C=C/C=C/C=C/C=C/C1=C(C(=O)O)C2OOC(CO)C(O)C(O1)C2O)C(=O)O (single isomer, unassigned) [Compound 1, Epicoccaene]
Antimicrobial activity (Candida albicans SC5614): No antimicrobial activity
Antimicrobial activity (Candida utilis 02/D00981): No antimicrobial activity
Radical scavenging ability [1]: comparable to those of ascorbic acid
Activity against mycelial growth (zone of inhibition) (B. cinera ICMP16621 [2]): strong activity
Antimicrobial activity (Escherichia coli SVB-B11): No antimicrobial activity
Antimicrobial activity [3]: No antimicrobial activity
Antioxidant power by FRAP [4]: comparable to those of ascorbic acid
Inhibition of spore germination (A. alternata ICMP1099-96; [16]): completely inhibit
minimal inhibition dose (MID) (A. alternata ICMP1099-96; spore germination): below 0.7 mg/mL
Antioxidant power by phosphomolybdenum assay [5]: comparable to those of ascorbic acid
Antimicrobial activity [6]: No antimicrobial activity
Inhibition of spore germination [7]: resistant
Final absorbance (428 nm) [8, 17]: 0.66
Final absorbance (428 nm) [8, 18]: 0.38
Final absorbance (428 nm) [8, 19]: 2.08
Final absorbance (428 nm) [8, 20]: 2.07
Inhibition of spore germination [9, 16]: completely inhibit
minimal inhibition dose (MID) ([9]; spore germination): below 0.7 mg/mL
Inhibition of spore germination (B. cinera ICMP16621 [10]; [16]): completely inhibit
Inhibition of spore germination (B. cinera ICMP16621 [10]; incubation in rich culture medium for 10 days, data not shown): completely inhibit
minimal inhibition dose (MID) (B. cinera ICMP16621 [10]; spore germination): below 0.7 mg/mL
Inhibition of spore germination (M. grisea ICMP14481; [16]): completely inhibit
minimal inhibition dose (MID) (M. grisea ICMP14481; spore germination): below 0.7 mg/mL
Activity against mycelial growth (zone of inhibition) [11]: strong activity
Inhibition of spore germination [12, 16]: completely inhibit
minimal inhibition dose (MID) ([12]; spore germination): below 0.7 mg/mL
Inhibition of spore germination [13, 16]: completely inhibit
minimal inhibition dose (MID) ([13]; spore germination): below 0.7 mg/mL
Inhibition of spore germination (P. viticola ICMP5537; [16]): completely inhibit
minimal inhibition dose (MID) (P. viticola ICMP5537; spore germination): below 0.7 mg/mL
Activity against mycelial growth (zone of inhibition) (A. supraseptata SVB-F2): strong activity
Resistance to temperature and microwave radiation [14]: resistant
Initial absorbance (428 nm) [14, 17]: 1.61
Initial absorbance (428 nm) ([14]; Stability to common acids: Citric acid): 1.53
Final absorbance (428 nm) ([14]; Stability to common acids: Citric acid, after 10 days): 0.51
Initial absorbance (428 nm) ([14]; Stability to common acids: Lactic acid): 1.52
Final absorbance (428 nm) ([14]; Stability to common acids: Lactic acid, after 10 days): 0.68
Initial absorbance (428 nm) [14, 18]: 1.53
Initial absorbance (428 nm) ([14]; Stability to common alkalis: Na2CO3 10% w/w): 2.13
Final absorbance (428 nm) ([14]; Stability to common alkalis: Na2CO3 10% w/w, after 10 days): 2.12
Initial absorbance (428 nm) [14, 19]: 2.08
Initial absorbance (428 nm) ([14]; Stability to common alkalis: NaOH 10% w/w): 2.05
Final absorbance (428 nm) ([14]; Stability to common alkalis: NaOH 10% w/w, after 10 days): 2.04
Initial absorbance (428 nm) ([14]; Stability to light: In ethanol 5% v/v): 2.04
Final absorbance (428 nm) ([14]; Stability to light: In ethanol 5% v/v, after 10 days): 2.04
Initial absorbance (428 nm) ([14]; Stability to light: In methanol): 2.04
Final absorbance (428 nm) ([14]; Stability to light: In methanol, after 10 days): 2.04
Initial absorbance (428 nm) ([14]; Stability to light: In water): 2.05
Final absorbance (428 nm) ([14]; Stability to light: In water, after 10 days): 1.82
Final absorbance (428 nm) [14, 21]: 2.04
Initial absorbance (428 nm) [14, 21]: 2.05
Initial absorbance (428 nm) ([14]; Stability to presence of sugars: Dextrose 10% w/w): 2.08
Final absorbance (428 nm) ([14]; Stability to presence of sugars: Dextrose 10% w/w, after 10 days): 2.08
Initial absorbance (428 nm) ([14]; Stability to presence of sugars: Fructose 10% w/w): 2.02
Final absorbance (428 nm) ([14]; Stability to presence of sugars: Fructose 10% w/w, after 10 days): 2.03
Initial absorbance (428 nm) [14, 20]: 2.08
Final absorbance (428 nm) [14, 22]: 2.03
Initial absorbance (428 nm) [14, 22]: 2.05
Final absorbance (428 nm) [14, 23]: 2.06
Initial absorbance (428 nm) [14, 23]: 2.08
Final absorbance (428 nm) [14, 24]: 2.04
Initial absorbance (428 nm) [14, 24]: 2.05
Final absorbance (428 nm) [14, 25]: 2.06
Initial absorbance (428 nm) [14, 25]: 2.08
Final absorbance (428 nm) [14, 26]: 2.07
Initial absorbance (428 nm) [14, 26]: 2.08
Final absorbance (428 nm) [14, 27]: 2.06
Initial absorbance (428 nm) [14, 27]: 2.05
Final absorbance (428 nm) [14, 28]: 2.07
Initial absorbance (428 nm) [14, 28]: 2.08
Stability under acidic conditions ([14]; acidic conditions, colour changes from bright yellow to pale orange): unstable
Light sensitivity ([14]; dissolved in water at neutral pH): moderate light sensitivity
Resistance to light ([14]; in water at pH 8.0 or higher, in methanol or in sugar solutions (10% w/w)): resistance to light increased
Degradation in solution of organic acids ([14]; organic acids (10% w/w)): pronounced degradation
Final absorbance (428 nm) ([14]; pH stability, pH 3, after 10 days, constant incandescent light): 1.45
Initial absorbance (428 nm) ([14]; pH stability, pH 3, constant incandescent light): 1.46
Final absorbance (428 nm) ([14]; pH stability, pH 5, after 10 days, constant incandescent light): 1.67
Initial absorbance (428 nm) ([14]; pH stability, pH 5, constant incandescent light): 1.67
Final absorbance (428 nm) ([14]; pH stability, pH 7, after 10 days, constant incandescent light): 2.05
Initial absorbance (428 nm) ([14]; pH stability, pH 7, constant incandescent light): 2.05
Final absorbance (428 nm) ([14]; pH stability, pH 8, after 10 days, constant incandescent light): 2.08
Initial absorbance (428 nm) ([14]; pH stability, pH 8, constant incandescent light): 2.09
Final absorbance (428 nm) ([14]; pH stability, pH 10, after 10 days, constant incandescent light): 2.09
Initial absorbance (428 nm) ([14]; pH stability, pH 10, constant incandescent light): 2.09
Solubility (Solubility): readily soluble
minimal inhibition dose (MID) (R. solani ICMP11620): below 0.7 mg/mL
Inhibition of spore germination (R. solani ICMP11620; [16]): completely inhibit
Antimicrobial activity [15]: No antimicrobial activity
